Assays:
[1] = test system: endogenous SK in rat IEC6 cells; assay: Cell-based [3H]sphingosine to [3H]S1P assay of endogenous SK activity, rat IEC6 cells; conditions: FIG. 2A
Method: (§1) FIG. 2. […] Values represent the mean±sd SK activity in triplicate samples in a typical experiment. A cell-based assay in which the phosphorylation of exogenously added [^3H]sphingosine to [^3H]S1P by endogenous SK can be quantified (French et al., Cancer Res 63: 5962 (2003)) was used to evaluate the effects of test compounds on the activity of SK in intact cells. In this assay, cells are incubated with [^3H]sphingosine for an appropriate period of time, and then [^3H]sphingosine and [^3H]S1P (formed by endogenous SK activity) are separated by extraction and levels of both species are determined by scintillation counting. […] For example, human umbilical vein endothelial cells (HUVECs) are commonly used as a model of human vasculature. Additionally, rat IEC6 cells are commonly used as a model of intestinal epithelial cells.

[2] = test system: male Lewis rats, adjuvant-induced arthritis; assay: Adjuvant-induced arthritis model; format: in vivo; conditions: 5, 35, 100 mg/kg oral daily, 10 days
Method: FIG. 18. Effects of ABC294640 on disease progression in the adjuvant-induced arthritis model in rats. Male Lewis rats were injected subcutaneously with Mycobacterium butyricum, and symptoms of immune reactivity were present after 2 weeks. Responsive rats were randomized into treatment groups (n=8 per group), and received oral daily doses of: solvent alone (0.375% Tween-80); 100 mg/kg ABC294640; 35 mg/kg ABC294640; or 5 mg/kg ABC294640, or intraperitoneal injections of indomethacin (5 mg/kg) every other day. The severity of disease in each animal was quantified by measurement of the hind paw thickness. Panel A. Time course of hind paw arthritic response. Panel B. Final day (Day 10) hind paw thickness measurements. Panel C. Change in paw thickness of respective group versus non-arthritic rats (naive) at Day 10. *, p<0.05; ***, p<0.001 versus solvent alone group.
Adjuvant-induced arthritis is another widely used assay that recapitulates many features of human rheumatoid arthritis, and so is useful in the evaluation of new drug candidates. Age- and weight-matched male Lewis rats (150-170 g) were injected subcutaneously in the tail with 1 mg of Mycobacterium butyricum (Difco, killed dried) suspended in 0.1 ml of light mineral oil. Symptoms of immune reactivity were present after 2 weeks. […] The severity of disease in each animal was quantified by measurement of the hind paw thickness. […]

[3] = test system: male C57BL/6 mice, DSS-colitis; assay: Acute DSS-colitis model of IBD; format: in vivo; conditions: 2% DSS, 50 mg/kg oral daily; for Disease Activity Index (DAI): Days 4-6
[4] = test system: Cox-2 activity (PGE2 production) in human endothelial cells; assay: TNFα-induced Cox-2 activity (PGE2 ELISA), human endothelial cells; format: cell-based; conditions: 10 μg/mL compound, 100 ng TNFα/mL, 18 hours
[5] = test system: endogenous SK in human umbilical vein endothelial cells (HUVECs); assay: Cell-based [3H]sphingosine to [3H]S1P assay of endogenous SK activity, HUVECs; conditions: for cellular levels of [3H]S1P: 24 hours treatment, FIG. 3
Method: as §1, with “typical experiment. FIG. 3. […] HUVECs were treated with the indicated concentrations of Compound I, II or V for 24 hours. SK activity was measured by adding [^3H]sphingosine and determining its conversion to [3H]S1P. Values represent the mean±SD of duplicate samples. A cell-based” for “typical experiment. A cell-based”, “epithelial cells. […] Specifically, HUVECs, human chondrocytes (HC), and human synovial cells from a patient with RA (HFLS-RA) were examined.” for “epithelial cells.”

[6] = test system: mice, chronic DSS-colitis; assay: Chronic (35-day) DSS-colitis model of IBD; format: in vivo; conditions: for colon length: Day 35, 50 mg/kg oral daily for 7 days, DSS alone 4.9±0.2, water 7.8±0.3; for serum level of IL-6: at time of sacrifice; for increase in DAI: third DSS exposure, 50 mg/kg oral daily Day 28-35, P<0.001 on Day 35; for colonic levels of pro-inflammatory cytokines TNFα, IL-1β, IFN-γ and IL-6: treated during the final DSS cycle, 50 mg/kg oral
physchem = conditions: aqueous with cosolvent or surfactant or cyclodextrin
[7] = test system: Cox-2 activity (PGE2 production) in IEC6 rat intestinal epithelial cells; assay: TNFα-induced Cox-2 activity (PGE2 ELISA), IEC6 cells; format: cell-based; conditions: 10 μg/mL compound, 100 ng TNFα/mL, 18 hours
[8] = test system: ICAM-1 and VCAM-1 in human endothelial cells; assay: TNFα-induced adhesion molecule expression (Western analysis); format: cell-based; conditions: TNFα 100 ng/mL, 6 hours
Method: Like endothelial cells in the body, HUVECs will proliferate in response to several growth factors, and will respond to inflammatory cytokines such as TNFα and IL-1β. Western analyses were conducted with human endothelial cells to evaluate the effects of the SK inhibitors on signaling proteins known to be regulated by TNFα. […] Cell lysates from treated cells were assayed for the adhesion molecules ICAM-1 and VCAM-1. TNFα caused marked increases in the expression levels of adhesion proteins involved in leukocyte recruitment, including ICAM-1 and VCAM-1.

[9] = test system: female DBA/1 mice, Collagen-Induced Arthritis; assay: Collagen-Induced Arthritis (CIA) model; format: in vivo; conditions: Day 12; ABC294640 100 mg/kg, ABC747080 50 mg/kg oral
[10] = test system: female Swiss-Webster mice; conditions: mouse, in vivo
Method: The compounds are soluble to at least 15 mg/ml in 50% dimethylsulfoxide: 50% phosphate-buffered saline (DMSO:PBS) for intraperitoneal (IP) administration or Polyethylene glycol-400 (PEG400) for oral dosing.

NFκB = assay: TNFα-induced NFκB luciferase reporter assay in fibroblasts; format: cell-based; conditions: TNFα for 6 hours, FIG. 4
Method: FIG. 4. Inhibition of TNFα-induced activation of NFκB by ABC294640. Fibroblasts transfected with a TNFα-responsive promoter linked to luciferase were treated with the indicated concentrations of ABC294640 and then treated with TNFα for 6 hours. The amount of luciferase expressed by the cells was then measured by luminescence. Values represent the mean±sd luciferase activity in triplicate samples in a typical experiment.

human sphingosine kinase = assay: Screening assay for inhibitors of SK; format: biochemical; conditions: library screen
Description: An assay for screening for inhibitors of SK has been established (French et al., Cancer Res 63: 5962 (2003)). […] Representative active compounds from four chemotypes of SK inhibitors, designated herein as Compounds I-IV, are shown in FIG. 1.

[11] = test system: endogenous SK in human synovial cells from a patient with RA (HFLS-RA); assay: Cell-based S1P formation assay, HFLS-RA cells; conditions: read-out: drug concentration that decreases S1P formation by 50%
Method: (§2) A cell-based assay in which the phosphorylation of exogenously added [^3H]sphingosine to [^3H]S1P by endogenous SK can be quantified (French et al., Cancer Res 63: 5962 (2003)) was used to evaluate the effects of test compounds on the activity of SK in intact cells. In this assay, cells are incubated with [^3H]sphingosine for an appropriate period of time, and then [^3H]sphingosine and [^3H]S1P (formed by endogenous SK activity) are separated by extraction and levels of both species are determined by scintillation counting. We have used a number of cell lines in this assay to confirm that the SK inhibitors are active in multiple intact cell systems. For example, human umbilical vein endothelial cells (HUVECs) are commonly used as a model of human vasculature. Additionally, rat IEC6 cells are commonly used as a model of intestinal epithelial cells.
(§3) Specifically, HUVECs, human chondrocytes (HC), and human synovial cells from a patient with RA (HFLS-RA) were examined.

[12] = test system: HL-60 (human promyelocytic leukemia) cells; assay: TNFα-induced HL-60 cell proliferation; format: cell-based; conditions: 25 ng TNFα/ml, 72 hours
Method: FIG. 6. Inhibition of TNFα-induced HL-60 cell proliferation by SK inhibitors. HL-60 cells were serum-starved for 18 hours and then left untreated (▴) or treated with 25 ng of TNFα/ml (▾) in the presence of the indicated concentrations of Compound I, II or V. After 72 hours, the number of cells in each treatment group was quantified.
As discussed above, aberrant activation of leukocytes is a central feature of many inflammatory diseases. Because of the roles of S1P in promoting leukocyte proliferation, we examined the effects of several SK inhibitors on the proliferation of HL-60 (human promyelocytic leukemia) cells. […] Compound I was particularly effective, completely blocking the effects of TNFα at concentrations of 0.2 μM or greater.

[13] = test system: endogenous SK in human chondrocytes (HC); assay: Cell-based S1P formation assay, human chondrocytes; conditions: HCs; read-out: drug concentration that decreases S1P formation by 50%
Method: as §2, §3

## O=C(NCc1ccncc1)C12CC3CC(C1)CC(c1ccc(Cl)cc1)(C3)C2 [ABC294640]
[1]
  SK activity ([3H]S1P formation): dose-dependent suppression of SK activity
[2]
  arthritic response (paw thickness): inhibited this arthritic response in a dose-dependent manner
[3]; Day 6
  colon length: colons of intermediate length
  colonic S1P levels (LC-MS/MS): markedly lower levels of colonic S1P
  histological examination of colon sections: no or mild crypt damage, no or low levels of inflammatory cell infiltration and no edema in the submucosa
  increase in colonic myeloperoxidase (MPO) activity: markedly attenuated
[3]
  Disease Activity Index (DAI): reduced the intensity of the IBD manifestations
[4]
  induction of Cox-2 activity by TNFα (PGE2 production): strongly suppressed
[5]; human endothelial cells, FIG. 2B
  SK activity ([3H]S1P formation): dose-dependent suppression of SK activity
[6]; DSS treated mice
  SK expression in the colon (immunohistochemistry): clearly reduced
[6]
  colon length: 6.2±0.2 cm
  serum level of IL-6: reduced the serum level of IL-6
  increase in DAI: significantly suppressed the increase in DAI
  colonic levels of pro-inflammatory cytokines TNFα, IL-1β, IFN-γ and IL-6: reduced levels of the pro-inflammatory cytokines
[6]; oral 50 mg/kg daily, 7 days prior to sacrifice
  colonic S1P levels: significant reductions of S1P levels
physchem
  solubility: ≥ 15 mg/mL
[7]
  induction of Cox-2 activity by TNFα (PGE2 production): strongly suppressed
[8]; 25 μM compound
  TNFα induction of ICAM-1 and VCAM-1: completely abrogated
[8]
  TNFα-induced expression of ICAM-1 and VCAM-1: inhibited
[9]
  histologic damage of tibiotarsal joints: significantly reduced histologic damage
[10]; ip
  dose with no immediate or delayed toxicity: at least 50 mg/kg
[10]; po
  dose without noticeable toxicity: at least 100 mg/kg
NFκB
  activation of NFκB by TNFα (luciferase): dose-dependently suppressed
Human sphingosine kinase
  inhibition of SK: inhibit SK

## Oc1ccc(Nc2nc(-c3ccc(Cl)cc3)cs2)cc1 [Compound II]
[11]
  IC50: 0.19 µM
[5]; HUVECs
  cellular levels of [3H]S1P: dose-dependent reductions in the cellular levels of S1P
[5]; HUVECs, read-out: drug concentration that decreases S1P formation by 50%
  IC50: 0.2 µM
[12]
  HL-60 cell proliferation of TNFα-stimulated cells: dose-dependent reductions in HL-60 cell proliferation
[13]
  IC50: 0.36 µM

## O=C(O)c1cc(/N=N/c2ccc(O)c(C(=O)O)c2)ccc1O [Dipentum, reference compound]
[3]; Day 6
  colon Histology Score: consistently lower than the DSS-alone animals
  colon length: colons of intermediate length
  elevations of colonic pro-inflammatory proteins IFN-γ, IL-1β, IL-6 and TNFα: attenuated
  increase in colonic myeloperoxidase (MPO) activity: markedly attenuated
[3]
  Disease Activity Index (DAI): reduced the intensity of the IBD manifestations
[6]
  colon length: 6.1±0.2 cm
  serum level of IL-6: reduced the serum level of IL-6
  increase in DAI: significantly suppressed the increase in DAI
  colonic levels of pro-inflammatory cytokines TNFα, IL-1β, IFN-γ and IL-6: cytokine profiles equivalent to the DSS-alone group

## O=C1C(=Cc2ccc(O)c(O)c2)Oc2ccccc21 [V]
[5]; HUVECs
  cellular levels of [3H]S1P: dose-dependent reductions in the cellular levels of S1P
[12]
  HL-60 cell proliferation of TNFα-stimulated cells: dose-dependent reductions in HL-60 cell proliferation

— patent US8324237B2, “Methods for the treatment and prevention of inflammatory diseases” (priority 2005, dated 2012)
